Data: ChEMBL document CHEMBL1127708, “Aromatase inhibitors. Syntheses and structure-activity studies of novel pyridyl-substituted indanones, indans, and tetralins” (J Med Chem, 1994)

What was measured:
Rattus norvegicus [1] = species: Rattus norvegicus; type: functional; conditions: dose 10.3 mg/kg
Rattus norvegicus [2] = species: Rattus norvegicus; type: functional; conditions: dose 10.3 mg/kg; remark: listed apart in the source
Rattus norvegicus [3] = species: Rattus norvegicus; type: functional; conditions: dose 10.3 mg/kg; remark: listed apart in the source
Rattus norvegicus [4] = species: Rattus norvegicus; type: functional; conditions: dose 10.3 mg/kg; remark: listed apart in the source
Rattus norvegicus [5] = species: Rattus norvegicus; type: functional; conditions: dose 10.3 mg/kg; remark: listed apart in the source
Rattus norvegicus [6] = species: Rattus norvegicus; type: functional; conditions: dose 10.3 mg/kg; remark: listed apart in the source
Rattus norvegicus [7] = species: Rattus norvegicus; type: functional; conditions: dose 10.3 mg/kg; remark: listed apart in the source
Aromatase = molecular target: T1, Aromatase (Rattus norvegicus, UniProt P22443)
T1 sequence (P22443 whole entry): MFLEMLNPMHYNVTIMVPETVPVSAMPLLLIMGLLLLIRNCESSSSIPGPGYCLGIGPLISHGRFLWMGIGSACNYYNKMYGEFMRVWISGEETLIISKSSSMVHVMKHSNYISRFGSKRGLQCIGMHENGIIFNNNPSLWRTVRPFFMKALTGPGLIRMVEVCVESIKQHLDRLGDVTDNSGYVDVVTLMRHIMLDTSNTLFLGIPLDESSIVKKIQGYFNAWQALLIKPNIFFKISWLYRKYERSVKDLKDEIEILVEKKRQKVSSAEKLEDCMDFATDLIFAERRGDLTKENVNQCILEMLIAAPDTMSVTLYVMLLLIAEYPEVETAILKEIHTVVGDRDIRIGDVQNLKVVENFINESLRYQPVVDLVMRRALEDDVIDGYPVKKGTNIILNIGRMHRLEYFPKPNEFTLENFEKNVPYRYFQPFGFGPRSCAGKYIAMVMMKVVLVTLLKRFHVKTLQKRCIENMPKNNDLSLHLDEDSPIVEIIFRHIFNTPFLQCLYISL

Rattus norvegicus [8] = species: Rattus norvegicus; type: functional; conditions: dose 10 mg/kg
Rattus norvegicus [9] = species: Rattus norvegicus; type: functional
Rattus norvegicus [10] = species: Rattus norvegicus; type: functional; remark: listed apart in the source
Rattus norvegicus [11] = species: Rattus norvegicus; type: functional; remark: listed apart in the source
Rattus norvegicus [12] = species: Rattus norvegicus; type: functional; remark: listed apart in the source
Rattus norvegicus [13] = species: Rattus norvegicus; type: functional; remark: listed apart in the source
Rattus norvegicus [14] = species: Rattus norvegicus; type: functional; remark: listed apart in the source
Rattus norvegicus [15] = species: Rattus norvegicus; type: functional; conditions: dose 10 mg/kg; remark: listed apart in the source
Rattus norvegicus [16] = species: Rattus norvegicus; type: functional; conditions: dose 10 mg/kg; remark: listed apart in the source
Rattus norvegicus [17] = species: Rattus norvegicus; type: functional; conditions: dose 10 mg/kg; remark: listed apart in the source
Rattus norvegicus [18] = species: Rattus norvegicus; type: functional; conditions: dose 10 mg/kg; remark: listed apart in the source
Rattus norvegicus [19] = species: Rattus norvegicus; type: functional; conditions: dose 10 mg/kg; remark: listed apart in the source
Rattus norvegicus [20] = species: Rattus norvegicus; type: functional; conditions: dose 10 mg/kg; remark: listed apart in the source
Rattus norvegicus [21] = species: Rattus norvegicus; type: functional; conditions: dose 10 mg/kg; remark: listed apart in the source

Oc1cccc2c1CCC(Cc1ccncc1)C2 (stereo not drawn)
Change of tumor area (Rattus norvegicus [1]): 16% | Change of tumor area (Rattus norvegicus [2]): 123% | Change of tumor area (Rattus norvegicus [3]): 41% | No. of tumors (Rattus norvegicus [4]): 4 | Change of tumor area (Rattus norvegicus [5]): 19% | No. of tumors (Rattus norvegicus [6]): 37 | Change of tumor area (Rattus norvegicus [7]): 24%

O=C1c2ccc(O)cc2CC1Cc1ccncc1 (stereo not drawn)
Effect (Aromatase): 160

CCC(=O)OC1CCC2C3CCC4=CC(=O)CCC4C3CCC12C (stereo not drawn)
Change of tumor area (Rattus norvegicus [8]): 141% | No. of tumors (Rattus norvegicus [9]): 12 | Change of tumor area (Rattus norvegicus [10]): 19% | Change of tumor area (Rattus norvegicus [11]): 25% | Change of tumor area (Rattus norvegicus [12]): 19% | Change of tumor area (Rattus norvegicus [13]): 36% | No. of tumors (Rattus norvegicus [14]): 36

COc1ccc2c(c1)CC(Cc1ccncc1)C2=O (stereo not drawn)
Effect (Aromatase): 150

CCC1(c2ccc(N)cc2)CCC(=O)NC1=O (stereo not drawn) [AMINOGLUTETHIMIDE]
Of tumors (Rattus norvegicus [15]): 6% | No. of tumors (Rattus norvegicus [16]): 35 | No. of tumors (Rattus norvegicus [17]): 7 | Change of tumor area (Rattus norvegicus [18]): 17% | Change of tumor area (Rattus norvegicus [19]): 23% | Change of tumor area (Rattus norvegicus [20]): 54% | Change of tumor area (Rattus norvegicus [21]): 4%
